Experimental data: ChEMBL document CHEMBL3217659, “Synthesis and antifungal activity of 1,5-disubstituted-1,2,3-triazole containing fluconazole analogues” (Medchemcomm, 2012)
Values after ≈ are worked out from the molar mass of the structure shown.

Experiments:
[1] = system: Cryptococcus neoformans; test: Antifungal activity against Cryptococcus neoformans after 72 hrs by microbroth dilution technique; format: functional
[2] = system: Sporothrix schenckii; test: Antifungal activity against Sporothrix schenckii after 72 hrs by microbroth dilution technique; format: functional
[3] = system: Trichophyton mentagrophytes; test: Antifungal activity against Trichophyton mentagrophytes after 96 hrs by microbroth dilution technique; format: functional
[4] = system: Candida albicans; test: Antifungal activity against Candida albicans after 48 hrs by microbroth dilution technique; format: functional
[5] = system: Candida parapsilosis; test: Antifungal activity against Candida parapsilosis after 48 hrs by microbroth dilution technique; format: functional
[6] = system: Aspergillus fumigatus; test: Antifungal activity against Aspergillus fumigatus after 72 hrs by microbroth dilution technique; format: functional
[7] = system: L929; test: Cytotoxicity against mouse L929 cells up to 3.12 ug/ml after 24 hrs using Giemsa staining by phase contrast microscopy; format: cell-based; conditions: l929, 24 h
[8] = system: L929; test: Cytotoxicity against mouse L929 cells at >3.12 ug/ml after 24 hrs using Giemsa staining by phase contrast microscopy; format: cell-based; conditions: l929, 24 h
[9] = Cryptococcus neoformans, 72 h, read-out: MIC
[10] = Sporothrix schenckii, 72 h, read-out: MIC
[11] = Trichophyton mentagrophytes, 96 h, read-out: MIC
[12] = Candida albicans, 48 h, read-out: MIC
[13] = Lodderomyces parapsilosis, 48 h, read-out: MIC
[14] = Aspergillus fumigatus, 72 h, read-out: MIC

SMILES | MIC [1, 9] [µg/mL] | MIC [2, 10] [µg/mL] | MIC [3, 11] [µg/mL] | MIC [4, 12] [µg/mL] | MIC [5, 13] [µg/mL] | MIC [6, 14] [µg/mL] | MIC [1] [µg/mL] | MIC [2] [µg/mL] | MIC [3] [µg/mL] | MIC [4] [µg/mL] | Activity [7] | Activity [8] | MIC [5] [µg/mL] | MIC [6] [µg/mL]
CCCCCCCCn1nncc1CC(O)(Cn1cncn1)c1ccc(F)cc1F (racemic) | 50 (≈ 119 µM) | 6.25 (≈ 14.9 µM) | 50 (≈ 119 µM) | 0.39 (≈ 0.932 µM) | 50 (≈ 119 µM) | > 50 |  |  |  |  |  |  |  | 
CCCCCCc1cnnn1CC(O)(Cn1cncn1)c1ccc(F)cc1F (stereo in doubt; 9B) |  |  |  |  |  |  | >50 | >50 | 50 (≈ 128 µM) | >50 |  |  |  | 
CCCCCCCCn1cc(CC(O)(Cn2cncn2)c2ccc(F)cc2F)nn1 (racemic) | 25 (≈ 59.7 µM) |  |  |  |  |  |  | 0.045 (≈ 0.108 µM) | 0.39 (≈ 0.932 µM) | 0.007 (≈ 0.0167 µM) | Non-toxic | Toxic | 0.0112 (≈ 0.0268 µM) | 3.12 (≈ 7.46 µM)
CCCCCCc1cn(C[C@@](O)(Cn2cncn2)c2ccc(F)cc2F)nn1 | 50 (≈ 128 µM) | 0.78 (≈ 2 µM) | 6.25 (≈ 16 µM) | 0.0225 (≈ 0.0576 µM) | 0.19 (≈ 0.487 µM) | 50 (≈ 128 µM) |  |  |  |  |  |  |  | 
CCCCCCCCn1cc(CC(O)(Cn2cncn2)c2ccc(F)cc2F)nn1 (stereo in doubt; 2A) |  |  |  |  |  |  |  | 0.0225 (≈ 0.0538 µM) | 0.19 (≈ 0.454 µM) | 0.0011 (≈ 0.00263 µM) |  |  | 0.0011 (≈ 0.00263 µM) | 
CCCCCCc1cnnn1CC(O)(Cn1cncn1)c1ccc(F)cc1F (racemic) | 50 (≈ 128 µM) |  | 50 (≈ 128 µM) |  | > 50 | 25 (≈ 64 µM) |  | 3.12 (≈ 7.99 µM) |  | 0.078 (≈ 0.2 µM) |  |  |  | 
CCCCCCc1cn(CC(O)(Cn2cncn2)c2ccc(F)cc2F)nn1 (racemic) | 25 (≈ 64 µM) | 0.78 (≈ 2 µM) | 12.5 (≈ 32 µM) | 0.09 (≈ 0.231 µM) | 0.39 (≈ 0.999 µM) | 25 (≈ 64 µM) |  |  |  |  |  |  |  | 
CCCCCCc1cn(C[C@](O)(Cn2cncn2)c2ccc(F)cc2F)nn1 | 50 (≈ 128 µM) | 50 (≈ 128 µM) | 50 (≈ 128 µM) | 50 (≈ 128 µM) | > 50 | > 50 |  |  |  |  |  |  |  | 
OC(Cn1cncn1)(Cn1cncn1)c1ccc(F)cc1F [FLUCONAZOLE] | 1 (≈ 3.27 µM) | 2 (≈ 6.53 µM) | 1 (≈ 3.27 µM) | 0.5 (≈ 1.63 µM) | 1 (≈ 3.27 µM) | 2 (≈ 6.53 µM) |  |  |  |  |  |  |  | 
CCCCCCc1cnnn1CC(O)(Cn1cncn1)c1ccc(F)cc1F (stereo in doubt; 9A) |  |  |  |  |  |  | 50 (≈ 128 µM) | 1.56 (≈ 4 µM) |  | 0.039 (≈ 0.0999 µM) |  |  | 50 (≈ 128 µM) | >50
CCCCCCCCn1cc(CC(O)(Cn2cncn2)c2ccc(F)cc2F)nn1 (stereo in doubt; 2B) |  |  |  |  |  |  | 25 (≈ 59.7 µM) | 12.5 (≈ 29.9 µM) | 25 (≈ 59.7 µM) | 12.5 (≈ 29.9 µM) |  |  | 50 (≈ 119 µM) | 50 (≈ 119 µM)
C[C@@H]1[C@H](O)[C@@H](C)/C=C/C=C/C=C/C=C/C=C/C=C/C=C/[C@H](O[C@@H]2O[C@H](C)[C@@H](O)[C@H](N)[C@@H]2O)C[C@@H]2O[C@](O)(C[C@@H](O)C[C@@H](O)[C@H](O)CC[C@@H](O)C[C@@H](O)CC(=O)O[C@H]1C)C[C@H](O)[C@H]2C(=O)O [AMPHOTERICIN B] | 0.06 (≈ 0.0649 µM) | 0.12 (≈ 0.13 µM) | 0.12 (≈ 0.13 µM) | 0.12 (≈ 0.13 µM) | 0.12 (≈ 0.13 µM) | 0.5 (≈ 0.541 µM) |  |  |  |  |  |  |  | 
